Drawing on patent US8008320B2, “3-(indolyl)-4-arylmaleimide derivatives and their use as angiogenesis inhibitors” (Johannes Gutenberg-Universitatis, priority 2004, dated 2011), this text covers melting point for 7 compounds.

For orientation: melting point means the temperature of the solid-liquid transition. `COc1cc(C2=C(c3c(-c4ccccc4)[nH]c4ccccc34)C(=O)NC2=O)cc(OC)c1OC` [Example 6, 3-(2-Phenylindole-3-yl)-4-(3,4,5-trimethoxyphenyl)-1H-pyrrole-2,5-dione] gave a melting point of 304 °C.
The same measure for `COc1cc(C2=C(c3c[nH]c4ncccc34)C(=O)NC2=O)cc(OC)c1OC` [Example 8, 3-(7-Azaindol-3-yl)-4-(3,4,5-trimethoxyphenyl)-1H-pyrrole-2,5-dione]: 162 °C; for `COc1ccc2[nH]cc(C3=C(c4cc(OC)c(OC)c(OC)c4)C(=O)NC3=O)c2c1` [Example 3, 3-(5-Methoxyindole-3-yl)-4-(3,4,5-trimethoxyphenyl)-1H-pyrrole-2,5-dione]: 268 °C.
The same measure for `COc1cc(C2=C(c3cn(C)c4ccccc34)C(=O)NC2=O)cc(OC)c1OC` [Example 4, 3-(1-Methylindole-3-yl)-4-(3,4,5-trimethoxyphenyl)-1H-pyrrole-2,5-dione]: 187 °C; for `COc1ccc(C2=C(c3c[nH]c4ccccc34)C(=O)NC2=O)cc1OC` [Example 2, 3-(Indole-3-yl)-4-(3,4-dimethoxyphenyl)-1H-pyrrole-2,5-dione]: 210 °C; for `COc1cc(C2=C(c3cc4ccccc4[nH]3)C(=O)NC2=O)cc(OC)c1OC` [Example 7, 3-(Indole-2-yl)-4-(3,4,5-trimethoxyphenyl)-1H-pyrrole-2,5-dione]: 252 °C.
Consider `COc1cc(C2=C(c3c(C)[nH]c4ccccc34)C(=O)NC2=O)cc(OC)c1OC` [Example 5, 3-(2-Methylindole-3-yl)-4-(3,4,5-trimethoxyphenyl)-1H-pyrrole-2,5-dione], for which the melting point was 266 °C.
